Test results from patent US11479553B2, “5-5 fused rings as C5a inhibitors” (CHEMOCENTRYX, INC., priority 2017, dated 2022).

molecular target: C5aR (Homo sapiens (Human), UniProt P21730); test: Chemotaxis assay (inhibition of C5aR mediated migration toward C5a); type: cell-based; settings: inhibition in the chemotaxis assay (Example 14 B.3); U937 or neutrophil cells, C5a as chemoattractant
Description: U937 cells are a monocytic cell line which express C5aR, and are available from ATCC (VA). These cells were cultured as a suspension in RPMI-1640 medium supplemented with 2 mM L-glutamine, 1.5 g/L sodium bicarbonate, 4.5 g/L glucose, 10 mM HEPES, 1 mM sodium pyruvate, and 10% FBS. Cells were grown under 5% CO2/95% air, 100% humidity at 37° C. and subcultured twice weekly at 1:6 (cells were cultured at a density range of 1×10^5 to 2×10^6 cells/mL) and harvested at 1×10^6 cells/mL. Prior to assay, cells are treated overnight with 0.5 mM of cyclic AMP (Sigma, OH) and washed once prior to use. cAMP treated U937 cells can be used in C5aR ligand binding and functional assays.
Optionally, human or murine neutrophils can be used to assay for compound activity. Neutrophils may be isolated from fresh human blood using density separation and centrifigation. Briefly, whole blood is incubated with equal parts 3% dextran and allowed to separate for 45 minutes. After separation, the top layer is layered on top of 15 mls of Ficoll (15 mls of Ficoll for every 30 mls of blood suspension) and centrifuged for 30 minutes at 400×g with no brake. The pellet at the bottom of the tube is then isolated and resuspended into PharmLyse RBC Lysis Buffer (BD Biosciences, San Jose, Calif.) after which the sample is again centrifuged for 10 minutes at 400×g with brake. The remaining cell pellet is resuspended as appropriate and consists of isolated neutrophils.
Optionally, compounds may be further assayed for their ability to inhibit chemotaxis in cells. Chemotaxis assays are performed using 5 μm pore polycarbonate, polyvinylpyrrolidone-coated filters in 96-well chemotaxis chambers (Neuroprobe; Gaithersburg, Md.) using chemotaxis buffer (Hank's balanced salt solution (HBSS) and 1% FBS). C5aR ligands (i.e., C5a, R&D Systems; Minneapolis, Minn.) are use to evaluate compound mediated inhibition of C5aR mediated migration. Other chemokines (i.e., SDF-1α; R&D Systems; Minneapolis, Minn.) are used as specificity controls. The lower chamber is loaded with 29 μl of chemokine (i.e., 0.03 nM C5a) and varying amounts of compound; the top chamber contains 100,000 U937 or neutrophil cells in 20 μl. The chambers are incubated 1.5 hours at 37° C., and the number of cells in the lower chamber quantified either by direct cell counts in five high powered fields per well or by the CyQuant assay (Molecular Probes), a fluorescent dye method that measures nucleic acid content and microscopic observation.

C5aR, sequence (P21730 whole entry): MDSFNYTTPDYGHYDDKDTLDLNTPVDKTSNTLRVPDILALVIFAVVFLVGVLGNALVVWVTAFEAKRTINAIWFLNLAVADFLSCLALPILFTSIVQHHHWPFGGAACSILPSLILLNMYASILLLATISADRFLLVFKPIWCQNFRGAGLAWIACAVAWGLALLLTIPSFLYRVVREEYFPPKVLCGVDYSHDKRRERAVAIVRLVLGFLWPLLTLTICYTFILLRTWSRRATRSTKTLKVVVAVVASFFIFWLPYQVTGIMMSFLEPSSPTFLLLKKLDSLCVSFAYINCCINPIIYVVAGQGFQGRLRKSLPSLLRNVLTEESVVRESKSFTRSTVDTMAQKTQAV

IC50	SMILES
5 to 50 nM	CCc1cccc(CC)c1-n1nc2c(c1-c1ccc(F)c3[nH]ccc13)CN(C(=O)C(C)(C)C(F)(F)F)C2(C)C [Compound 1.033]
50 to 500 nM	CCc1cccc(CC)c1-n1nc2c(c1-c1ccc(F)c3[nH]ccc13)CN(CC(C)(C)C)C2(C)C [Compound 1.009]
< 5 nM	CCc1cccc(CC)c1-n1nc2c(c1-c1ccc(F)c3[nH]ccc13)CN(CC(C)(C)C(F)(F)F)C2(C)C [Compound 1.032]
≥ 500 nM	Cc1cccc(C)c1-n1nc2c(c1-c1ccc3[nH]ccc3c1)CN(CC(C)(C)C)C2 [Compound 1.051]
